We go through 3 compounds from article PMC10381533, “Inhibitory Effects of the Fungal Pigment Rubiginosin C on Hyphal and Biofilm Formation in Candida albicans and Candida auris” (Journal of Fungi, 2023).

The subject of one data set is C. albicans [DSM 11225]. The data set is described as follows: MIC assay, C. albicans DSM 11225. Format: cell-based, Candida albicans. The settings on record: tested 250–2 µg/mL. The procedure: (§1) The MICs of rubiginosin- and rutilin-type azaphilones—in detail, Rub A, C, W, Z, and Rut A and B—were determined as described previously using the selected pathogens C. albicans [DSM 11225, DSM 1665], C. albicans CAI-4 HWP1-lacZ [ZK3379] and C. auris [DSM 21092] (see Table S1 for detailed information). All compounds were tested within the concentration range of 250 µg/mL–2 µg/mL for C. albicans [DSM 11225, DSM 1665], C. albicans CAI-4 HWP1-lacZ [ZK3379], C. auris [DSM 21092]. […]
(§2) All compounds were fully dissolved in
(§3) The assay was conducted as a minimum inhibitory concentration (MIC) assay in 96-well round-bottom microtiter plates using the parameters summarized in table S1 and as already described in [2]. Stocks of the test organisms were generated by growing the organisms overnight in 250 mL (Candida albicans [DSM 11225], [DSM 1665], CAI-4 HWP1-lacZ, Candida auris [DSM 21092]) or 50 mL shaking (the rest organisms) flasks filled with 25 mL of the growth medium at 140 rpm (for media and temperatures see table S1). After incubation overnight, the OD of the suspension was measured and adjusted by diluting with the respective growth medium. OD600 nm was adjusted to 0.01 for bacteria and OD600 nm to 0.1 for fungi and 150 μL of the adjusted suspensions were added to all wells of a 96-well microtiter plate (one test organism per plate). Subsequently, additional 130 μL (1 mg/mL tested compounds) or 142.5 μL (10 mg/mL tested compounds ) of suspensions, plus 20 μL (1 mg/mL tested compounds) respectively 7.5 μL (10 mg/mL tested compounds ) of the test compounds were added to first row. C ontrols (one compound/column) were added as well: MeOH were used as solvent control, while different positive controls (reference drugs ) were used for the according test organisms (see table S1). Starting from row A, 150 μL of the suspension were transferred […]
(§4) to the next row, the contents thoroughly mixed, and 150 μL transferred to the following row. The remaining 150 μL after row H were discarded.
(§5) 66.7 μg/mL in row A to 0.52 μg/mL in row H (1 mg/mL tested compounds) or 250 μg/mL in row A to 2 μg/mL in row H (10 mg/mL tested compounds).
(§6) The 96-well microtiter plates were then incubated overnight on a microplate shaker at 800 rpm at 30 or 37 °C (see table S1) and were visually evaluated the next day. The MIC is defined as the lowest concentration where no growth of the test organism was observed. A lower MIC thus corresponds to a higher antimicrobial activity […]
(§7) Table S1: MIC assay experiment parameters.
(§8) Tested organisms Strain No. Growth Incubation Positive control medium temp. [°C ] (reference)
(§9) KB-3-1 (ACC 158) cervix carcinoma as well as L929 (ACC 2) mouse fibroblasts were cultured under standard cell culture conditions (37 °C, 5% CO2, 95% humidified atmosphere). The cells were maintained in high glucose DMEM containing 10% fetal bovine serum and 100 U/mL penicillin and streptomycin (Gibco, Thermo Fisher Scientific, Waltham, USA). Cell lines were serially passaged after trypsinization, using 0.05% trypsin / 0.02% EDTA solution. The cultures were routinely monitored for potential contamination, and only mycoplasma free cultures were used. The test compounds were investigated for their anti-proliferative effect on cell lines, using the 3-(4,5-dimethylthiazol-2-yl)-2,5-diphenyltetrazolium bromide (MTT) based cell viability assay. […]

For data set [1], the system named is C. albicans CAI-4 HWP1-lacZ [ZK3379]. The data set is described as follows: MIC assay, C. albicans CAI-4 HWP1-lacZ. Format: cell-based, Candida albicans. The note with it: tested 250–2 µg/mL. The protocol:
as §1, §2, §3, §4, §5, §6, §7, §8, §9

A further data set concerns C. auris [DSM 21092]. As to the kind of experiment: MIC assay, C. auris. Format: cell-based, Candida auris. The note with it: tested 250–2 µg/mL. The protocol: as §1, §2, §3, §4, §5, §6, §7, §8, §9
Another data set deals with C. auris biofilm. As to the kind of experiment: Crystal violet biofilm formation assay, C. auris. Format: cell-based, Candida auris. The settings on record: for effect on formation of C. auris biofilms: CV assay, 24 h treatment; for inhibition at 2 µg/mL / inhibition at 3.9 µg/mL / inhibition at 7.8 µg/mL / inhibition at 15.6 µg/mL / inhibition at 31.3 µg/mL / inhibition at 62.5 µg/mL / inhibition at 125 µg/mL / inhibition at 250 µg/mL: Candidozyma auris, read-out: inhibition of C. auris biofilm formation compared to solvent control (= 0%). The protocol: (§10) The fungal pathogens C. auris [[…]] or C. albicans [DSM 11225] were cultured from stock in 25 mL YPD medium in a 250 mL flask (30 °C, 100 rpm, 18 h). The turbidity of the broth was measured at 280 nm using a spectrophotometer (Nanodrop 2000c, Thermo Fisher Scientific, Waltham, MA, USA) and diluted to match the turbidity of a 0.5 McFarland standard in RPMI 1640 medium (Gibco, New York, NY, USA; Thermo Fisher Scientific), supplemented with […] 3-(N-morpholino)propanesulfonic acid (MOPS, Carl Roth, Karlsruhe, Germany) for C. auris, or 0.05 McFarland standard in RPMI 1640 medium in the case of C. albicans. Subsequently, 150 μL of the fungal dispersion were added into each well of a 96-well microtiter plate (Falcon no. 351172, Thermo Fisher Scientific) and further incubated (37 °C, 150 rpm, 2 h [C. auris] or 90 min [C. albicans]). The supernatant was discarded and the plate was rinsed one time by using a PBS buffer. Afterwards, azaphilones (Rub A, C, W, Z, and Rut A and B) were serially diluted in 150 μL in fresh medium to concentrations of 250–2 μg/mL (Rub C for C. auris: 250–0.02 μg/mL). Methanol (2.5%) was used as a solvent control and both, nystatin (NYS; Thermo Fisher Scientific) and farnesol (FA; Sigma Aldrich, St. Louis, MO, USA) as positive controls (250–2 μg/mL) for C. auris and C. albicans, respectively. Plates were further incubated (37 °C, 150 rpm, 24 h). The supernatant was discarded and biofilms were washed with PBS, stained by adding 150 μL of the crystal violet (CV; Sigma Aldrich) solution (0.1%), and incubated (room temperature, 25 min). Afterwards, the plates were washed twice with PBS buffer. A total of 150 μL ethanol (95%) were applied to dissolve the biofilm-bound CV. The absorbance was measured by a plate reader (Synergy 2, BioTek, Santa Clara, CA, USA) at 570 nm for C. auris or 610 nm for C. albicans. Error bars indicate SD with duplicates in two biological repeats.

The subject of a further data set is C. albicans [DSM 1665]. On the set-up: method as in doi:10.1002/ejoc.202001661. The settings on record: highest tested concentration 250 µg/mL; cited from earlier work.
Data set [2] concerns human endocervical adenocarcinoma KB-3-1 [ACC 158] cells. The settings on record: cited from earlier work.
The subject of data set [3] is mouse fibroblasts L929 [ACC 2]. The note with it: cited from earlier work.
Data set [4] deals with murine fibroblasts (L929) and human endocervical adenocarcinoma cells (KB-3-1). On the set-up: method as in doi:10.1002/ejoc.202001661. The note with it: range over Rub A and Rub Z and over both cell lines; cited from earlier work.
Details of data set [5]: method as in PMID 15921417. The settings on record: OA alone; cited from earlier work.
Data set [6] deals with C. albicans [DSM 11225] biofilm. The data set is described as follows: Crystal violet biofilm formation assay, C. albicans. Format: cell-based, Candida albicans. The note with it: CV assay, 24 h treatment. The protocol:
as §10, with “Methanol (2.5%) was used as a solvent control and both, nystatin (NYS; Thermo Fisher Scientific) and farnesol (FA; Sigma Aldrich, St. Louis, MO, USA) as positive controls (250–2 μg/mL) for C. auris and C. albicans, respectively. Plates were further incubated (37 °C, 150 rpm, 24 h). The supernatant was discarded and biofilms were washed with PBS, stained by adding 150 μL of the crystal violet (CV; Sigma Aldrich) solution (0.1%), and incubated (room temperature, 25 min). Afterwards, the plates were washed twice with PBS buffer. A total of 150 μL ethanol (95%) were applied to dissolve the biofilm-bound CV.” left out, “Error bars indicate SD with duplicates in two biological repeats.” left out

As to `CC(=O)OC/C=C/C1=CC2=C(CO1)C(=O)[C@@](C)(OC(=O)c1c(C)cc(O)cc1O)[C@@H](O)C2` [Rub Z, rubiginosin Z], the MIC entry against C. albicans [DSM 11225] was “no antimicrobial activity”. Further, the MIC result in data set [1] is listed as “no antimicrobial activity”. Further, the MIC entry with C. auris [DSM 21092] was “no antimicrobial activity”. In the data set with C. auris biofilm, the “effect on formation of C. auris biofilms” value is “did not affect the formation”; the inhibition (in general, the drop in the measured response relative to a control, in per cent) at 2 µg/mL was below 20%; the inhibition at 3.9 µg/mL was below 20%; the inhibition at 7.8 µg/mL was below 20%. Also, in the data set with C. auris biofilm, the inhibition at 15.6 µg/mL is below 20%, the inhibition at 31.3 µg/mL is below 20%, the inhibition at 62.5 µg/mL is below 20% and the inhibition at 125 µg/mL is below 20%. Also, in the data set with C. auris biofilm, the inhibition at 250 µg/mL is below 20%. Besides, the MIC result in the data set on C. albicans [DSM 1665] was “no antimicrobial activity”. Moreover, the IC50 (as a rule, the point on the concentration scale where inhibition reaches its midpoint) in data set [2] is 5.2 µM. The IC50 in [3] is 4.7 µM. Also, in [4], the IC50 values between is 2.6 to 4.5 µg/mL.
In the case of `Cc1cc(O)cc(O)c1C(=O)O` [OA, orsellinic acid], the cytotoxicity result in [5] was “no cytotoxicity”.
Consider `CC(=O)OC/C=C/C1=CC2=C(CO1)C(=O)[C@@](C)(O)[C@@H](OC(=O)c1c(C)cc(O)cc1O)C2` [Rub A, rubiginosin A], for which the MIC result against C. albicans [DSM 11225] was “no antimicrobial activity”. Further, the MIC result in data set [1] is “no antimicrobial activity”. For the same compound, the MIC entry in the data set on C. auris [DSM 21092] is on record as “no antimicrobial activity”. Also, in the data set with C. auris biofilm, the “effect on formation of C. auris biofilms” value was “did not affect the formation”, the inhibition at 2 µg/mL was below 20%, the inhibition at 3.9 µg/mL was below 20% and the inhibition at 7.8 µg/mL is below 20%. Further, in the data set with C. auris biofilm, the inhibition at 15.6 µg/mL was below 20%, the inhibition at 31.3 µg/mL was below 20%, the inhibition at 62.5 µg/mL is below 20% and the inhibition at 125 µg/mL is below 20%. Besides, the inhibition at 250 µg/mL with C. auris biofilm was below 20%. The “concentration above which significant effects on C. albicans biofilm formation start” value in data set [6] was “above 31.3 µg/mL”. Besides, the MIC entry in the data set on C. albicans [DSM 1665] is given as “no antimicrobial activity”. The IC50 in data set [2] is 5.2 µM. In data set [3], the IC50 is 3.2 µM. Moreover, the IC50 values between in data set [4] is 2.6 to 4.5 µg/mL.
